Values quoted from earlier work in US11273125B2, “Preparation of desiccated liposomes for use in compressible delivery systems” (SMARTEK INTERNATIONAL LLC, priority 2017, dated 2022).

Settings: poor bioavailability of the unformulated compound; route and species not given

**Q.** For COc1ccc2c(=O)cc(-c3ccccc3)oc2c1 [7-methoxyflavone], which bioavailability is on record?
**A.** Its bioavailability is “approximately 5%”.
